According to patent publication US12391672B2, “Solid forms comprising (S)-4-(4-(4-(((2-(2,6-dioxopiperidin-3-yl)-1-oxoisoindolin-4-yl)oxy)methyl)benzyl)piperazin-1-yl)-3-fluorobenzonitrile and salts thereof, and compositions comprising and methods of using the same” (Celgene Corporation, priority 2019, dated 2025):
Entries after “also recorded” stand apart in the source; their conditions may differ.

Assay: Solid state stability under accelerated storage conditions
Type: physicochemical
Method in brief: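 Solid forms stored at 60 °C and 60 °C/75% RH (Form A 1 week, Form B 2 weeks); Form K held 14 d at 40 °C, 40 °C/75% RH, 60 °C, 60 °C/75% RH and light, versus refrigerated/ambient. Assessed by DSC/TGA, appearance, HPLC purity, chiral HPLC (S-isomer area %) and XRPD post-DVS.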

N#Cc1ccc(N2CCN(Cc3ccc(COc4cccc5c4CN([C@H]4CCC(=O)NC4=O)C5=O)cc3)CC2)c(F)c1.O [Form K of a free base of Compound 1]
Physical stability (DSC, PXRD, TGA) (14 d at 40° C., 40° C./75% RH, 60° C., 60° C./75% RH, light chamber): there does not appear to be any major change in the crystal form and water content
physical and chemical stability (accelerated stability conditions): chemically and physically stable; also recorded: physically and chemically stable
Solid state chiral stability (accelerated stability conditions, initial 97.1 area % S-isomer): no change in the chiral stability
Solid state chemical stability (HPLC) (accelerated storage conditions, 14 d): no significant degradation was observed
Solid state chemical stability (HPLC), light (exposed to light (1.2 million lux)): Minor degradation
